Assay results from patent US20260327221A1, “INHIBITORS OF CYCLIC GMP-AMP SYNTHASE AND USES THEREOF” (Ventus Therapeutics U.S., Inc., priority 2023, published 2026).

target: hcGAS (Homo sapiens, UniProt Q8N884); assay: hcGAS LCMS assay (direct measurement of cGAMP production by LC/MS); type: biochemical; details: 4 h incubation with enzyme and substrates; cGAMP production by LC/MS; class symbols; read-out: hcGAS LCMS IC50
Method: cGAS catalyzes the cyclization of ATP and GTP to produce cGAMP, which is the activating ligand of STING. Human cGAS (hcGAS) inhibition can thus be quantified by measuring how much cGAMP is formed either indirectly, by monitoring ATP-depletion as in the hcGAS Kinase-Glo assay (as described below), or directly, such as using the hcGAS LCMS assay (as described below).
2. hGAS LCMS Assay Conditions
Compounds were tested for their hcGAS inhibition activity using direct measurement of cGAMP production by LC/MS. Briefly, compounds were incubated with enzyme and substrates for 4 hours (see Table C), before the reaction was stopped with 3 volumes of 70/30 Acetonitrile/H2O mix containing 0.15 uM cGAMP-^13C10^15N5 as internal standard and mixed for 5 mmn. After centrifugation (3700 rpm, […], […]), 100 uL of each reaction was collected and mixed to equal volume of acetonitrile (MeCN). Samples were then analyzed on Qexactive (Column: XBridge BEH Amide Column, 130 Å, 3.5 μm, 3 mm×50 mm. Mobile phase A: 10 mM Ammonium acetate in 95/5 H2O/MeCN (0.5% DMSO), Mobile phase B: MeCN (0.5% DMSO).
The results of the assay, expressed as IC50 values, are reported in Table D with the following designations: A represents an IC50 value <0.005 μM (with A1 representing an IC50 value <0.0005 μM, A2 representing an IC50 value ≥0.0005 μM and <0.001 μM, and A3 representing an IC50 value ≥0.001 μM and <0.005 μM); B represents an IC50 value ≥0.005 μM and <0.02 μM; C represents an IC50 value ≥0.02 μM and <0.06 μM; and D represents an IC50 value ≥0.06 μM.

hcGAS, sequence (Q8N884 whole entry): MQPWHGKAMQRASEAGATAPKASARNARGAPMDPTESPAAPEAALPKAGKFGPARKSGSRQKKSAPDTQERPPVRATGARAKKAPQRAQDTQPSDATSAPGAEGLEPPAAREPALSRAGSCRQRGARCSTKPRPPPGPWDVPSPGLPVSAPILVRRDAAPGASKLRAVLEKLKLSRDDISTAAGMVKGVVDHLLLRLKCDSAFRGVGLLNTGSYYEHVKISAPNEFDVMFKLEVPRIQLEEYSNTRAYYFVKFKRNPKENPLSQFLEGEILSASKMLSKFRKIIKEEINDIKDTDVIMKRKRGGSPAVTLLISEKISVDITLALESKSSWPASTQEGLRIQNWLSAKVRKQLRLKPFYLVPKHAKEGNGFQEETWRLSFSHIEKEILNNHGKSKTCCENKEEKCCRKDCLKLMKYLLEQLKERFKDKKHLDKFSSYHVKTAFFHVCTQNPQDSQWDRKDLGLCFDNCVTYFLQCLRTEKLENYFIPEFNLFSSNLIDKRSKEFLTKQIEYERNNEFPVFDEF

Question: How did the IC50 turn out when COCCOc1c(-c2ncccc2OC)cc(C(=O)Nc2nnc(-c3c(F)ccn3C)s2)oc1=O [Compound 18, N-(5-(3-fluoro-1-methyl-1H-pyrrol-2-yl)-1,3,4-thiadiazol-2-yl)-3-(2-methoxyethoxy)-4-(3-methoxypyridin-2-yl)-2-oxo-2H-pyran-6-carboxamide] was run?
Answer: Its IC50 is 1 to 5 nM.

Question: COC[C@H](C)Oc1c(-c2c(OC)cccc2OC)cc(C(=O)Nc2nnc(-n3nccc3N)s2)oc1=O [Compound 47A, (S)—N-(5-(5-amino-1H-pyrazol-1-yl)-1,3,4-thiadiazol-2-yl)-4-(2,6-dimethoxyphenyl)-3-((1-methoxypropan-2-yl)oxy)-2-oxo-2H-pyran-6-carboxamide] was tested. Which IC50 did it give?
Answer: The IC50 was 1 to 5 nM.

Question: How did the IC50 turn out when COc1cccnc1-c1cc(C(=O)Nc2nnc(-n3nccc3N)s2)oc(=O)c1O[C@H]1CCC[C@@H](OC)C1 (single isomer, unassigned) [113C*] was run?
Answer: The IC50 was no less than 60 nM.

Question: For COCCOc1c(-c2ncc(Cl)cc2OC)cc(C(=O)Nc2nnc(-n3nccc3N)s2)oc1=O [Compound 58, N-(5-(5-amino-1H-pyrazol-1-yl)-1,3,4-thiadiazol-2-yl)-4-(5-chloro-3-methoxypyridin-2-yl)-3-(2-methoxyethoxy)-2-oxo-2H-pyran-6-carboxamide], which IC50 is on record?
Answer: The IC50 was 0.5 to 1 nM.

Question: With COc1cccc(OC)c1-c1cc(C(=O)Nc2nnc(-n3nccc3N)s2)oc(=O)c1O[C@H]1CC[C@H](O)CC1 [Compound 108A, N-(5-(5-amino-1H-pyrazol-1-yl)-1,3,4-thiadiazol-2-yl)-4-(2,6-dimethoxyphenyl)-3-(((1r,4r)-4-hydroxycyclohexyl)oxy)-2-oxo-2H-pyran-6-carboxamide] as the compound, how does the IC50 read?
Answer: The IC50 was less than 0.5 nM.

Question: COc1cccc(OC)c1-c1cc(C(=O)Nc2nnc(-n3nccc3N)s2)oc(=O)c1OCC(=O)N1CCSCC1 [Compound 90, N-(5-(5-amino-1H-pyrazol-1-yl)-1,3,4-thiadiazol-2-yl)-4-(2,6-dimethoxyphenyl)-2-oxo-3-(2-oxo-2-thiomorpholinoethoxy)-2H-pyran-6-carboxamide] was tested. Which IC50 did it give?
Answer: The IC50 was less than 0.5 nM.

Question: With COc1c(-c2nn(C)cc2C#N)cc(C(=O)Nc2nnc(-n3nccc3C)s2)oc1=O [Compound 31, 4-(4-cyano-1-methyl-1H-pyrazol-3-yl)-3-methoxy-N-(5-(5-methyl-1H-pyrazol-1-yl)-1,3,4-thiadiazol-2-yl)-2-oxo-2H-pyran-6-carboxamide] as the compound, how does the IC50 read?
Answer: The IC50 was 5 to 20 nM.

Question: How did the IC50 turn out when COCC(CN1CCSCC1)Oc1c(-c2c(OC)cccc2OC)cc(C(=O)Nc2nnc(-n3nccc3N)s2)oc1=O (stereo not drawn) [78A*/78B*] was run?
Answer: Its IC50 is 5 to 20 nM.

Question: With COC[C@H](CO)COc1c(-c2c(OC)cccc2OC)cc(C(=O)Nc2nnc(-n3nccc3N)s2)oc1=O [92B*, (S)-N-(5-(5-amino-1H-pyrazol-1-yl)-1,3,4-thiadiazol-2-yl)-4-(2,6-dimethoxyphenyl)-3-(3-hydroxy-2-(methoxymethyl)propoxy)-2-oxo-2H-pyran-6-carboxamide] as the compound, how does the IC50 read?
Answer: Its IC50 is 1 to 5 nM.

Question: For COc1cccc(OC)c1-c1cc(C(=O)Nc2nnc(-n3nccc3N)s2)oc(=O)c1OC1CC(O)C1 (single isomer, unassigned) [Compound 57B, N-(5-(5-amino-1H-pyrazol-1-yl)-1,3,4-thiadiazol-2-yl)-4-(2,6-dimethoxyphenyl)-3-((1,3-cis)-3-hydroxycyclobutoxy)-2-oxo-2H-pyran-6-carboxamide], which IC50 is on record?
Answer: Its IC50 is less than 0.5 nM.

Question: How did the IC50 turn out when COc1cccc(OC)c1-c1cc(C(=O)Nc2nnc(-n3nccc3N)s2)oc(=O)c1OC[C@@H](C)O [Compound 46A, (R)—N-(5-(5-amino-1H-pyrazol-1-yl)-1,3,4-thiadiazol-2-yl)-4-(2,6-dimethoxyphenyl)-3-(2-hydroxypropoxy)-2-oxo-2H-pyran-6-carboxamide] was run?
Answer: The IC50 was 0.5 to 1 nM.

Question: How did the IC50 turn out when COc1cccc(OC)c1-c1cc(C(=O)Nc2nnc(-n3nccc3N)s2)oc(=O)c1O[C@H]1CCC[C@H](O)C1 (single isomer, unassigned) [109B*] was run?
Answer: Its IC50 is 0.5 to 1 nM.

Question: COc1cccc(OC)c1-c1cc(C(=O)Nc2nnc(-n3nccc3N)s2)oc(=O)c1O[C@H]1CCCC[C@@H]1O (single isomer, unassigned) [110B*] was tested. Which IC50 did it give?
Answer: The IC50 was 0.5 to 1 nM.

Question: Which IC50 does the source give for COCCOc1c(-c2c(OC)cncc2OC)cc(C(=O)Nc2nnc(-n3nccc3N)s2)oc1=O [Compound 28, N-(5-(5-amino-1H-pyrazol-1-yl)-1,3,4-thiadiazol-2-yl)-4-(3,5-dimethoxypyridin-4-yl)-3-(2-methoxyethoxy)-2-oxo-2H-pyran-6-carboxamide] here?
Answer: Its IC50 is 1 to 5 nM.

Question: For COc1cccnc1-c1cc(C(=O)Nc2nnc(-n3nccc3N)s2)oc(=O)c1O[C@H]1CCC[C@H](OC)C1 (single isomer, unassigned) [113B*], which IC50 is on record?
Answer: Its IC50 is 0.5 to 1 nM.

Question: Which IC50 does the source give for COCCOc1c(-c2ncc(OC)cc2OC)cc(C(=O)Nc2nnc(-n3nccc3N)s2)oc1=O [Compound 60, N-(5-(5-amino-1H-pyrazol-1-yl)-1,3,4-thiadiazol-2-yl)-4-(3,5-dimethoxypyridin-2-yl)-3-(2-methoxyethoxy)-2-oxo-2H-pyran-6-carboxamide] here?
Answer: Its IC50 is 1 to 5 nM.

Question: How did the IC50 turn out when COc1cccc(OC)c1-c1cc(C(=O)Nc2nnc(-n3nccc3N)s2)oc(=O)c1O[C@H](CO)C1CC1 [106A*, (S)-N-(5-(5-amino-1H-pyrazol-1yl)-1,3,4-thiadiazol-2-yl)-3-(1-cyclopropyl-2-hydroxyethoxy)-4-(2,6-dimethoxyphenyl)-2-oxo-2H-pyran-6-carboxamide] was run?
Answer: The IC50 was 1 to 5 nM.

Question: COc1cccc(OC)c1-c1cc(C(=O)Nc2nnc(-n3nccc3N)s2)oc(=O)c1OCCN1C[C@@H]2C[C@H]1CS2 [93A*, 3-(2-((1S,4S)-2-thia-5-azabicyclo[2.2.1]heptan-5-yl)ethoxy)-N-(5-(5-amino-1H-pyrazol-1-yl)-1,3,4-thiadiazol-2-yl)-4-(2,6-dimethoxyphenyl)-2-oxo-2H-pyran-6-carboxamide] was tested. Which IC50 did it give?
Answer: Its IC50 is 0.5 to 1 nM.

Question: With COc1cccc(OC)c1-c1cc(C(=O)Nc2nnc(-n3nccc3N)s2)oc(=O)c1O[C@@H]1CCC[C@H]1O (single isomer, unassigned) [71B*] as the compound, how does the IC50 read?
Answer: Its IC50 is 0.5 to 1 nM.

Question: With COc1cccc(OC)c1-c1cc(C(=O)Nc2nnc(-n3nccc3N)s2)oc(=O)c1OC(CO)CN1CCOCC1 (racemic) [Rac-87, N-(5-(5-amino-1H-pyrazol-1-yl)-1,3,4-thiadiazol-2-yl)-4-(2,6-dimethoxyphenyl)-3-((1-hydroxy-3-morpholinopropan-2-yl)oxy)-2-oxo-2H-pyran-6-carboxamide] as the compound, how does the IC50 read?
Answer: The IC50 was 1 to 5 nM.

Question: For COCCOc1c(-c2c(Cl)cccc2C#N)cc(C(=O)Nc2nnc(-n3nccc3N)s2)oc1=O [Compound 45, N-(5-(5-amino-1H-pyrazol-1-yl)-1,3,4-thiadiazol-2-yl)-4-(2-chloro-6-cyanophenyl)-3-(2-methoxyethoxy)-2-oxo-2H-pyran-6-carboxamide], which IC50 is on record?
Answer: The IC50 was less than 0.5 nM.

Question: Which IC50 does the source give for COC[C@@H](CO)Oc1c(-c2c(OC)cccc2OC)cc(C(=O)Nc2nnc(-n3nccc3N)s2)oc1=O [Compound 62B*, (R)—N-(5-(5-amino-1H-pyrazol-1-yl)-1,3,4-thiadiazol-2-yl)-4-(2,6-dimethoxyphenyl)-3-((1-hydroxy-3-methoxypropan-2-yl)oxy)-2-oxo-2H-pyran-6-carboxamide] here?
Answer: The IC50 was 0.5 to 1 nM.

Question: Which IC50 does the source give for COc1cccc(OC)c1-c1cc(C(=O)Nc2nnc(-n3nccc3N)s2)oc(=O)c1OCCN1CCCCC1 [Compound 69, N-(5-(5-amino-1H-pyrazol-1-yl)-1,3,4-thiadiazol-2-yl)-4-(2,6-dimethoxyphenyl)-2-oxo-3-(2-(piperidin-1-yl)ethoxy)-2H-pyran-6-carboxamide] here?
Answer: Its IC50 is 5 to 20 nM.

Question: With COC[C@@H](C)Oc1c(-c2c(OC)cccc2OC)cc(C(=O)Nc2nnc(-n3nccc3N)s2)oc1=O [Compound 47B, (R)—N-(5-(5-amino-1H-pyrazol-1-yl)-1,3,4-thiadiazol-2-yl)-4-(2,6-dimethoxyphenyl)-3-((1-methoxypropan-2-yl)oxy)-2-oxo-2H-pyran-6-carboxamide] as the compound, how does the IC50 read?
Answer: The IC50 was less than 0.5 nM.

Question: For COc1cccc(OC)c1-c1cc(C(=O)Nc2nnc(-n3nccc3N)s2)oc(=O)c1OCCN1CCO[C@H](CSC)C1 [82A*, (S)-N-(5-(5-amino-1H-pyrazol-1-yl)-1,3,4-thiadiazol-2-yl)-4-(2,6-dimethoxyphenyl)-3-(2-(2-((methylthio)methyl)morpholino)ethoxy)-2-oxo-2H-pyran-6-carboxamide], which IC50 is on record?
Answer: The IC50 was 1 to 5 nM.

Question: For COc1cccc(OC)c1-c1cc(C(=O)Nc2nnc(-n3nccc3N)s2)oc(=O)c1OCCN1CCSCC1CO (stereo not drawn) [96A*/96B*], which IC50 is on record?
Answer: Its IC50 is 1 to 5 nM.

Question: How did the IC50 turn out when COc1cccc(OC)c1-c1cc(C(=O)Nc2nnc(-n3nccc3N)s2)oc(=O)c1OC[C@@H]1COCCO1 (single isomer, unassigned) [Compound 43A*] was run?
Answer: Its IC50 is 0.5 to 1 nM.

Question: COc1cccnc1-c1cc(C(=O)Nc2nnc(-n3nccc3N)s2)oc(=O)c1O[C@@H]1CC[C@H](O)C1 (single isomer, unassigned) [111A*] was tested. Which IC50 did it give?
Answer: Its IC50 is 0.5 to 1 nM.

Question: How did the IC50 turn out when COc1cccnc1-c1cc(C(=O)Nc2nnc(-n3nccc3N)s2)oc(=O)c1O[C@H](C)CO [Compound 107B, (R)-N-(5-(5-amino-1H-pyrazol-1-yl)-1,3,4-thiadiazol-2-yl)-3-((1-hydroxypropan-2-yl)oxy)-4-(3-methoxypyridin-2-yl)-2-oxo-2H-pyran-6-carboxamide] was run?
Answer: Its IC50 is 0.5 to 1 nM.

same assay, conditions: hcGAS 0.5 nM; ATP 100 μM; GTP 100 μM; dsDNA 25 nM; pH 7.4; 4 h incubation; read-out: hcGAS inhibition IC50 (activity class, Table D)

Question: For COCCOc1c(-c2c(Cl)cccc2C#N)cc(C(=O)Nc2nnc(-n3nccc3N)s2)oc1=O [Compound 45, N-(5-(5-amino-1H-pyrazol-1-yl)-1,3,4-thiadiazol-2-yl)-4-(2-chloro-6-cyanophenyl)-3-(2-methoxyethoxy)-2-oxo-2H-pyran-6-carboxamide], which IC50 is on record?
Answer: The IC50 was less than 0.5 nM.
